Data published in patent EP3892734B1, “SCREENING METHODS AND THERAPEUTIC APPLICATIONS BASED ON BACTERIAL MOTILITY INHIBITION” (Ludwig-Maximilians-Universität München, priority 2020, dated 2021).
Entries after “also recorded” stand apart in the source; their conditions may differ.

System: H. pylori
Assay: therapeutic treatment in chronic H. pylori mouse infection model (cfu counts, cagL PCR)
Format: in vivo, C57B/L6 mice
Details: for reduction of colony-forming units (cfus) / bacterial loads in stomach: metronidazole 14.3 mg/kg/day, intragastric gavage
Protocol: 6-8 weeks old specific pathogen-free C57B/L6 mice were obtained from Charles River Laboratories. They were acclimatized to the new surroundings for one week before starting the assays. For the whole duration of the experiment, mice had access to sterile chow and sterile water ad libitum. In week one of the experiment, H. pylori was administered at 3×10^8 bacteria per mouse per inoculum (100 µl) on two days with one day of break in between. The proof-of-principle treatment was started two weeks after the end of the inoculation week, assuming a stable infection at this time point. The mice were treated in separate groups (8-14 animals per group), as outlined in the results, with compound(s), antibiotic (metronidazole at 14.3 mg/kg/day), a combination of both antibiotic and compound (for concentrations, see Results), or mock-treated once daily over seven consecutive days by intra-gastric gavage. After the treatment week, the mice were kept for another two weeks under normal housing and feeding conditions with sterilized chow and sterile water ad libitum. At the end of the assay period (week seven), the mice were necropsied by cervical dislocation under CO2 anesthesia. The animal experiments were authorized under German federal law by the LAVES (Lower Saxony Government Authority).
Then, BL2 was further tested for therapeutic efficacy in a mouse model of chronic H. pylori infection (Fig. 5). Six groups of mice (10 mice per group in each of the four infected and/or treated groups, and six mice in both of the control groups) were established in this mouse treatment trial. For the treatment groups, mice were infected in week one (using ca. 3×10^8 bacteria per animal; Methods), and the chronic infection was manifested for two more weeks. The once-daily treatment (intragastric gavage) started in week four on seven consecutive days. For the treatment groups, three H. pylori-infected groups were evaluated in parallel. One dose of treatment was given daily.
Group one was treated with metronidazole (14.3 mg/kg/day) only, an established anti-H. pylori antibiotic. The antibiotic concentration corresponds to concentrations routinely used in human treatment. Group two was treated with metronidazole (dosed at 14.3 mg/kg/day) and BL2 (10 mg/kg/day) in combination, and group three received BL2 (10 mg/kg/day) only. In addition, one infected and mock-treated group was kept as positive control, and two mock-infected groups were set aside, one for administering BL2 only (10 mg/kg/day; microbiota compound control) and one which was mock-infected and mock-treated (microbiota null control).
The read-out of successful treatment was the reduction of colony-forming units (cfus) of bacteria in infected and treated mice, over infected, non-treated, mice, at the end of the experiment. […] All mice in the infected positive control group were colonized (both cfu counts and PCR-positive), although the cfu counts in three positive animals were rather low.

[1] = BL2 10 mg/kg/day, once daily, 7 days, versus infected control

For `Cn1c(CSC(=N)N)c(Cl)c(=O)n1-c1ccccc1` [Active 2], the “reduction of colony-forming units (cfus) / bacterial loads in stomach” value (BL2 10 mg/kg/day, once daily, 7 days, versus infected control, listed as BL2) was “therapeutically effective; also recorded: significant activity in vivo; also recorded: significant therapeutic activity; also recorded: significantly effective in reducing bacterial loads”, the “reduction of colony-forming units (cfus) / bacterial loads in stomach” value (BL2 10 mg/kg/day, once daily, 7 days, versus infected control, listed as active 2/BL2) was “therapeutically active” and the “cfu counts in the antrum” value [1] was “statistically significant reduction of cfu counts in the antrum”. For the same compound, the “cfus in the corpus” value [1] was “trend towards reduced cfus” and the “gene-specific (cagL) PCR signal in stomach homogenates” value (two weeks post-treatment, listed as BL2) was “strong reduction of gene-specific PCR signal; also recorded: below detection levels”.
